# Experimental data from US9504729B2, “Antiangiogenic small molecules and methods of use” (The United States of America, as represented by the …, priority 2009, dated 2016).
# System: angiogenesis genes in dermal microvascular endothelial cells
# Experiment: Real time RT-PCR of angiogenesis gene expression during endothelial tube formation
# Type: cell-based
# Conditions: 1 μM SM, 24 hours
structure (smiles),measurement,setting,value
COc1cc2cc(c1Cl)N(C)C(=O)CC(OC(=O)C(C)C)C1(C)OC1C(C)C1CC(O)(NC(=O)O1)C(OC)/C=C/C=C(\C)C2 (centres unmarked) [compound 292222],Log2 fold-change of gene expression: 1839,,−0.1
same,Log2 fold-change of gene expression: 4247,,0.5
same,Log2 fold-change of gene expression: 5569,,1.5
same,Log2 fold-change of gene expression: 8131,,0.1
same,Log2 fold-change of gene expression: 9569,,0.2
same,Log2 fold-change of gene expression: 10988,,1.0
same,Log2 fold-change of gene expression: 23001,,−0.8
same,Log2 fold-change of gene expression: 55332,,2.4
same,Log2 fold-change of gene expression: 57722,,0.0
same,Log2 fold-change of gene expression: 58488,,1.0
same,Log2 fold-change of gene expression: 90780,,0.1
same,Log2 fold-change of gene expression: 134265,,−1.3
same,Log2 fold-change of gene expression: AKT1,,0.7
same,Log2 fold-change of gene expression: ANGPT1,,0.9
same,Log2 fold-change of gene expression: ANGPT2,,−1.3
same,Log2 fold-change of gene expression: ANGPTL3,,0.6
same,Log2 fold-change of gene expression: ANGPTL4,,1.3
same,Log2 fold-change of gene expression: ANPEP,,−0.6
same,Log2 fold-change of gene expression: ANTXR1,,−0.2
same,Log2 fold-change of gene expression: APOE,,−2.2
same,Log2 fold-change of gene expression: ARHGEF1,,−0.9
same,Log2 fold-change of gene expression: Acvrl1,,0.0
same,Log2 fold-change of gene expression: Adcy4,,−0.4
same,Log2 fold-change of gene expression: BAL1,,0.2
same,Log2 fold-change of gene expression: BMP1,,0.4
same,Log2 fold-change of gene expression: C1orf54,,−0.1
same,Log2 fold-change of gene expression: CALD1,,0.6
same,Log2 fold-change of gene expression: CCL2,,0.9
same,Log2 fold-change of gene expression: CCL11,,0.2
same,Log2 fold-change of gene expression: CD248,,1.3
same,Log2 fold-change of gene expression: CDH5,,−0.1
same,Log2 fold-change of gene expression: CENTD3,,−0.5
same,Log2 fold-change of gene expression: CLIC1,,6.6
same,Log2 fold-change of gene expression: COL4A3,,2.0
same,Log2 fold-change of gene expression: COL18A1,,1.2
same,Log2 fold-change of gene expression: COMT,,−0.2
same,Log2 fold-change of gene expression: CST4,,0.8
same,Log2 fold-change of gene expression: CTTNBP2NL,,0.2
same,Log2 fold-change of gene expression: CXCL3,,5.0
same,Log2 fold-change of gene expression: CXCL5,,3.4
same,Log2 fold-change of gene expression: CXCL6,,0.4
same,Log2 fold-change of gene expression: CXCL9,,0.4
same,Log2 fold-change of gene expression: CXCL10,,0.8
same,Log2 fold-change of gene expression: Calcr1,,−1.1
same,Log2 fold-change of gene expression: Caskin2,,−6.7
same,Log2 fold-change of gene expression: Ccbp2,,0.4
same,Log2 fold-change of gene expression: Cldn5,,−0.1
same,Log2 fold-change of gene expression: DGKG,,2.9
same,Log2 fold-change of gene expression: DKK3,,−1.1
same,Log2 fold-change of gene expression: DLL4,,−2.2
same,Log2 fold-change of gene expression: DUT,,−0.4
same,Log2 fold-change of gene expression: EFNA1,,0.9
same,Log2 fold-change of gene expression: EFNA3,,0.1
same,Log2 fold-change of gene expression: EFNB2,,−2.2
same,Log2 fold-change of gene expression: EGF,,2.8
same,Log2 fold-change of gene expression: ENG,,−0.9
same,Log2 fold-change of gene expression: EPHB4,,−0.5
same,Log2 fold-change of gene expression: EREG,,5.0
same,Log2 fold-change of gene expression: ESAM1,,−1.1
same,Log2 fold-change of gene expression: EXTL3,,0.8
same,Log2 fold-change of gene expression: Egf17,,−1.2
same,Log2 fold-change of gene expression: Ehd4,,−1.4
same,Log2 fold-change of gene expression: Entpd1,,−5.5
same,Log2 fold-change of gene expression: Epas1,,−1.7
same,Log2 fold-change of gene expression: EphB1,,0.9
same,Log2 fold-change of gene expression: Erg,,3.7
same,Log2 fold-change of gene expression: FGF1,,−1.4
same,Log2 fold-change of gene expression: FGF2,,−0.6
same,Log2 fold-change of gene expression: FGFR3,,0.8
same,Log2 fold-change of gene expression: FIGF,,0.1
same,Log2 fold-change of gene expression: FLT1,,−0.2
same,Log2 fold-change of gene expression: Fgd5,,−0.8
same,Log2 fold-change of gene expression: GPCR124,,−1.9
same,Log2 fold-change of gene expression: GRRP1,,0.1
same,Log2 fold-change of gene expression: Grp116,,−4.4
same,Log2 fold-change of gene expression: HAND2,,1.0
same,Log2 fold-change of gene expression: HGF,,1.3
same,Log2 fold-change of gene expression: HIF1A,,−0.7
same,Log2 fold-change of gene expression: HPSE,,1.6
same,Log2 fold-change of gene expression: Hspa12b,,−2.2
same,Log2 fold-change of gene expression: ID1,,0.0
same,Log2 fold-change of gene expression: ID3,,−0.2
same,Log2 fold-change of gene expression: IFNA1,,0.8
same,Log2 fold-change of gene expression: IFNB1,,1.1
same,Log2 fold-change of gene expression: IFNG,,3.1
same,Log2 fold-change of gene expression: IGF1,,6.0
same,Log2 fold-change of gene expression: IL1B,,4.3
same,Log2 fold-change of gene expression: IL6,,3.0
same,Log2 fold-change of gene expression: IL8,,13.9
same,Log2 fold-change of gene expression: ITGAV,,1.2
same,Log2 fold-change of gene expression: ITGB3,,2.5
same,Log2 fold-change of gene expression: Icam1,,0.5
same,Log2 fold-change of gene expression: Icam2,,0.1
same,Log2 fold-change of gene expression: JAG1,,1.6
same,Log2 fold-change of gene expression: KDR,,−1.2
same,Log2 fold-change of gene expression: Kifc1,,0.5
same,Log2 fold-change of gene expression: LAMAS5,,−0.4
same,Log2 fold-change of gene expression: LECT1,,1.4
same,Log2 fold-change of gene expression: LEP,,−0.6
same,Log2 fold-change of gene expression: Lasts2,,0.1
same,Log2 fold-change of gene expression: Lrrk1,,−0.1
same,Log2 fold-change of gene expression: MDK,,0.8
same,Log2 fold-change of gene expression: MMP2,,2.8
same,Log2 fold-change of gene expression: MMP9,,3.3
same,Log2 fold-change of gene expression: MMP11,,0.1
same,Log2 fold-change of gene expression: MRC2,,0.6
same,Log2 fold-change of gene expression: Mmm2,,−1.0
same,Log2 fold-change of gene expression: Myo1b,,−1.5
same,Log2 fold-change of gene expression: NID1,,−2.5
same,Log2 fold-change of gene expression: NM023516,,0.4
same,Log2 fold-change of gene expression: NRP1,,0.8
same,Log2 fold-change of gene expression: NRP2,,1.0
same,Log2 fold-change of gene expression: Notch4,,−0.4
same,Log2 fold-change of gene expression: Npr3,,0.9
same,Log2 fold-change of gene expression: PALD,,1.8
same,Log2 fold-change of gene expression: PDCD2,,0.2
same,Log2 fold-change of gene expression: PDGFA,,1.6
same,Log2 fold-change of gene expression: PECAM1,,−0.7
same,Log2 fold-change of gene expression: PGF,,0.6
same,Log2 fold-change of gene expression: PLAU,,2.7
same,Log2 fold-change of gene expression: PLG,,−0.7
same,Log2 fold-change of gene expression: PNMT,,0.1
same,Log2 fold-change of gene expression: PROK2,,1.9
same,Log2 fold-change of gene expression: PTGS1,,2.0
same,Log2 fold-change of gene expression: PTPRCAP,,0.1
same,Log2 fold-change of gene expression: Pltp,,0.4
same,Log2 fold-change of gene expression: Ptprb,,0.3
same,Log2 fold-change of gene expression: Ptprm,,−0.1
same,Log2 fold-change of gene expression: RAMP2,,−0.6
same,Log2 fold-change of gene expression: RASD2,,0.3
same,Log2 fold-change of gene expression: Rasip1,,−0.3
same,Log2 fold-change of gene expression: S1PR1,,−0.3
same,Log2 fold-change of gene expression: SERPINF1,,2.3
same,Log2 fold-change of gene expression: SPHK1,,2.0
same,Log2 fold-change of gene expression: STAB1,,0.2
same,Log2 fold-change of gene expression: Sdc4,,0.7
same,Log2 fold-change of gene expression: Sdpr,,−4.9
same,Log2 fold-change of gene expression: Slc43a3,,1.0
same,Log2 fold-change of gene expression: Slco2a1,,−5.3
same,Log2 fold-change of gene expression: TEK,,2.0
same,Log2 fold-change of gene expression: TGFA,,−3.4
same,Log2 fold-change of gene expression: TGFB1,,1.1
same,Log2 fold-change of gene expression: TGFB2,,1.9
same,Log2 fold-change of gene expression: TGFBR1,,1.8
same,Log2 fold-change of gene expression: THBS1,,1.1
same,Log2 fold-change of gene expression: THBS2,,1.9
same,Log2 fold-change of gene expression: THY1,,−8.0
same,Log2 fold-change of gene expression: TIMP1,,1.6
same,Log2 fold-change of gene expression: TIMP2,,1.1
same,Log2 fold-change of gene expression: TIMP3,,−0.4
same,Log2 fold-change of gene expression: TNF,,1.0
same,Log2 fold-change of gene expression: TNS1,,−0.3
same,Log2 fold-change of gene expression: TNS3,,0.5
same,Log2 fold-change of gene expression: TRA2B,,−0.6
same,Log2 fold-change of gene expression: TYMP,,−0.1
same,Log2 fold-change of gene expression: VEGFA,,3.2
same,Log2 fold-change of gene expression: VEGFC,,2.7
same,Log2 fold-change of gene expression: VGLL4,,−0.8
same,Log2 fold-change of gene expression: Vwf,,−3.3
same,Log2 fold-change of gene expression: copa,,0.2
same,Log2 fold-change of gene expression: itbp4,,0.1
same,Log2 fold-change of gene expression: ralb,,−0.4
same,Log2 fold-change of gene expression: stard9,,0.8
same,Log2 fold-change of gene expression: B2M,1st listing (r49),−0.4
same,Log2 fold-change of gene expression: HPRT1,1st listing (r50),0.3
same,Log2 fold-change of gene expression: RPL13A,1st listing (r51),0.7
same,Log2 fold-change of gene expression: GADPH,1st listing (r52),−0.1
same,Log2 fold-change of gene expression: ACTB,1st listing (r53),−0.8
same,Log2 fold-change of gene expression: PLXDC1,1st listing (r74),−0.1
same,Log2 fold-change of gene expression: TNFAIP2,1st listing (r91),0.6
same,Log2 fold-change of gene expression: Robo4,1st listing (r95),1.1
same,Log2 fold-change of gene expression: 151516,1st listing (r134),0.7
same,Log2 fold-change of gene expression: TNFAIP2,2nd listing (r92),0.2
same,Log2 fold-change of gene expression: B2M,2nd listing (r97),1.3
same,Log2 fold-change of gene expression: HPRT1,2nd listing (r98),1.4
same,Log2 fold-change of gene expression: RPL13A,2nd listing (r99),1.7
same,Log2 fold-change of gene expression: GADPH,2nd listing (r100),1.4
same,Log2 fold-change of gene expression: ACTB,2nd listing (r101),−6.3
same,Log2 fold-change of gene expression: PLXDC1,2nd listing (r104),0.3
same,Log2 fold-change of gene expression: 151516,2nd listing (r139),0.7
same,Log2 fold-change of gene expression: Robo4,2nd listing (r188),0.0
same,Log2 fold-change of gene expression: B2M,3rd listing (r145),0.0
same,Log2 fold-change of gene expression: HPRT1,3rd listing (r146),0.2
same,Log2 fold-change of gene expression: RPL13A,3rd listing (r147),0.3
same,Log2 fold-change of gene expression: GADPH,3rd listing (r148),−0.1
same,Log2 fold-change of gene expression: ACTB,3rd listing (r149),−0.9
same,Log2 fold-change of gene expression: B2M,4th listing (r193),0.6
same,Log2 fold-change of gene expression: HPRT1,4th listing (r194),0.4
same,Log2 fold-change of gene expression: RPL13A,4th listing (r195),1.2
same,Log2 fold-change of gene expression: GADPH,4th listing (r196),−0.2
same,Log2 fold-change of gene expression: ACTB,4th listing (r197),−0.6
